Data from ChEMBL document CHEMBL1134064, “Structure-activity relationship investigations of a potent and selective benzodiazepine oxytocin antagonist” (Bioorg Med Chem Lett, 2001).
pKi: −log10 of the molar value.

What was measured:
[1] = Plasma clearance was determined; assay type: ADME, organism-based, Canis lupus familiaris; details: dog
Oxytocin receptor = molecular target: T1, Oxytocin receptor (Homo sapiens, UniProt P30559); experiment: Inhibition of binding of [3H]oxytocin with human oxytocin receptor
T1 sequence (P30559 whole entry): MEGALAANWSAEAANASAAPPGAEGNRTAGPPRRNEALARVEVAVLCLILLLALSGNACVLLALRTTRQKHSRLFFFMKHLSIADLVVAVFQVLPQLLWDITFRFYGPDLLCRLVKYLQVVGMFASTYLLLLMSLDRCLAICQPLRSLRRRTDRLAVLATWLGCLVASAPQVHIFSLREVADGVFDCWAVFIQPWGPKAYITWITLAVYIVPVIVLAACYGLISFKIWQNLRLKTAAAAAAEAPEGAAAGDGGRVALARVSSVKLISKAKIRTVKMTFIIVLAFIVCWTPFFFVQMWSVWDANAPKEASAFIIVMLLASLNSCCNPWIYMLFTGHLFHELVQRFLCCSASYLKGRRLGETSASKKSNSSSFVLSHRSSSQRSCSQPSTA

[2] = Volume distribution was determined; assay type: ADME, organism-based, Canis lupus familiaris; details: dog, in vivo
[3] = Bioavailability; assay type: ADME, organism-based, Canis lupus familiaris; details: dog, in vivo

| Structure (SMILES) | clearance [1] | pKi (Oxytocin receptor) | Vd [2] | bioavailability [3] |
| --- | --- | --- | --- | --- |
| CC(=O)NC1N=C(c2ccccc2)c2ccccc2N(CC(=O)NCCc2cccc(Cl)c2)C1=O (centres undefined) | 6 mL/min/kg | 7.00 | 0.4 L/kg |  |
| CC(=O)CCCC(=O)NC1N=C(C)c2ccccc2N(CC(=O)N[C@@H](Cc2ccc(Cl)c(Cl)c2)C(N)=O)C1=O (some centres undefined) |  | 6.70 |  |  |
| CC(=O)NC1N=C(c2ccccc2)c2ccccc2N(CC(=O)NCCc2ccc(Cl)c(Cl)c2)C1=O (centres undefined) |  | 7.00 |  |  |
| CC(=O)CCCC(=O)NC1N=C(c2ccccc2)c2ccccc2N(CC(=O)NC2CCc3ccccc3C2)C1=O (centres undefined) | 0.3 mL/min/kg | < 5.30 | 0.2 L/kg |  |
| CC(=O)CCCC(=O)NC1N=C(c2ccccc2)c2ccccc2N(CC(=O)NCCCc2cccc(Cl)c2)C1=O (centres undefined) |  | 7.00 |  |  |
| CC(=O)CCCC(=O)NC1N=C(c2ccccc2)c2ccccc2N(CC(=O)NCCc2cccc3ccccc23)C1=O (centres undefined) |  | 7.80 |  |  |
| CC(=O)NC1N=C(c2ccccc2)c2ccccc2N(CC(=O)N[C@@H](Cc2ccc(Cl)c(Cl)c2)C(N)=O)C1=O (some centres undefined) |  | 7.60 |  |  |
| CC(=O)NC1N=C(c2ccccc2)c2ccccc2N(CC(=O)NCCc2cccc3ccccc23)C1=O (centres undefined) |  | 7.00 |  |  |
| CC(=O)CCCC(=O)NC1N=C(c2ccccc2)c2ccccc2N(CC(=O)NCCc2ccccc2Cl)C1=O (centres undefined) |  | 6.70 |  |  |
| CC(=O)CCCC(=O)NC1N=C(c2ccccc2)c2ccccc2N(CC(=O)NCCc2ccccc2)C1=O (centres undefined) |  | 6.50 |  |  |
| NC(=O)[C@H](Cc1ccc(Cl)c(Cl)c1)NC(=O)CN1C(=O)C(NC(=O)CN2CCOCC2)N=C(c2ccccc2)c2ccccc21 (some centres undefined) | 33 mL/min/kg | 7.40 | 2.8 L/kg |  |
| CS(=O)(=O)NC1N=C(c2ccccc2)c2ccccc2N(CC(=O)N[C@@H](Cc2ccc(Cl)c(Cl)c2)C(N)=O)C1=O (some centres undefined) |  | 6.30 |  |  |
| CC(=O)CCCC(=O)NC1N=C(C2CCCCC2)c2ccccc2N(CC(=O)N[C@@H](Cc2ccc(Cl)c(Cl)c2)C(N)=O)C1=O (some centres undefined) |  | 7.50 |  |  |
| CC(=O)CCCC(=O)NC1N=C(c2ccccc2)c2ccccc2N(CC(=O)N[C@@H](CC2CCCCC2)C(N)=O)C1=O (some centres undefined) |  | 6.10 |  |  |
| CC(=O)CCCC(=O)NC1N=C(Cn2ccnc2)c2ccccc2N(CC(=O)N[C@@H](Cc2ccc(Cl)c(Cl)c2)C(N)=O)C1=O (some centres undefined) |  | 6.10 |  |  |
| CC(=O)CCCC(=O)NC1N=C(c2ccccc2)c2ccccc2N(CC(=O)NCCc2cccc(Cl)c2)C1=O (centres undefined) | 3 mL/min/kg | 7.70 | 0.3 L/kg |  |
| CC(=O)NC1N=C(c2ccccc2)c2ccccc2N(CC(=O)NCc2nc(-c3ccccc3)no2)C1=O (centres undefined) |  | 6.10 |  |  |
| CC(=O)CCCC(=O)NC1N=C(c2ccccc2)c2ccccc2N(CC(=O)NCCc2ccc(Cl)c(Cl)c2)C1=O (centres undefined) | 4 mL/min/kg | 7.60 | 0.2 L/kg | 12% |
| CC(=O)CCCC(=O)NC1N=C(c2ccccc2)c2ccccc2N(CC(=O)N[C@@H](Cc2ccc(Cl)c(Cl)c2)C(N)=O)C1=O (some centres undefined) | 62 mL/min/kg | 8.10 | 0.6 L/kg | > 20% |
| CC(=O)CCCC(=O)NC1N=C(c2ccccc2)c2ccccc2N(CC(=O)NCCc2ccc3ccccc3c2)C1=O (centres undefined) |  | 7.80 |  |  |
| CC(=O)NC1N=C(c2ccccc2)c2ccccc2N(CC(=O)NCc2nc(-c3ccc(Cl)c(Cl)c3)cs2)C1=O (centres undefined) |  | < 5.30 |  |  |
| CC(=O)CCCC(=O)NC1N=C(c2ccccc2)c2ccccc2N(CC(=O)NC2=NOC(c3ccccc3)C2)C1=O (centres undefined) |  | < 5.50 |  |  |
| CC(=O)NC1N=C(c2ccccc2)c2ccccc2N(CC(=O)N[C@H](Cc2ccc(Cl)c(Cl)c2)C(N)=O)C1=O (some centres undefined) |  | 6.10 |  |  |
| CC(=O)NC1N=C(c2ccccc2)c2ccccc2N(CC(=O)N(C)CCc2cccc(Cl)c2)C1=O (centres undefined) |  | 5.80 |  |  |
| CC(=O)CCCC(=O)NC1N=C(c2ccccc2)c2ccccc2N(CC(=O)N[C@@H](Cc2ccc(F)cc2)C(N)=O)C1=O (some centres undefined) |  | 7.10 |  |  |
